Source: patent US12441736B2, “KIF18A inhibitors” (AMGEN INC., priority 2018, dated 2025)

Each compound was assayed against T1, Recombinant human KIF18A (1-467 His-tagged) protein (Homo sapiens, UniProt Q8NI77) (assay: KIF18A Enzyme Assay: microtubule-stimulated ATPase activity (ADP-Glo)). Conditions: 30 nM KIF18A, 30 μg/mL pig microtubules, 75 μM ATP, ADP-Glo luminescence.
T1 construct: Recombinant human KIF18A (1-467 His-tagged) protein; His; made in house
Assay type: biochemical
Method in brief: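 His-tagged human KIF18A (1-467, baculovirus), 30 nM, pre-incubated 15 min with compound in Tris pH 7.5 containing 30 μg/mL taxol-stabilised pig microtubules. ATP was then added at Km (75 μM) for 15 min at room temperature. ADP was measured by ADP-Glo luminescence, and IC50 was fitted by 4-parameter logistic over 22 points.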

T1 sequence (Q8NI77 1-467): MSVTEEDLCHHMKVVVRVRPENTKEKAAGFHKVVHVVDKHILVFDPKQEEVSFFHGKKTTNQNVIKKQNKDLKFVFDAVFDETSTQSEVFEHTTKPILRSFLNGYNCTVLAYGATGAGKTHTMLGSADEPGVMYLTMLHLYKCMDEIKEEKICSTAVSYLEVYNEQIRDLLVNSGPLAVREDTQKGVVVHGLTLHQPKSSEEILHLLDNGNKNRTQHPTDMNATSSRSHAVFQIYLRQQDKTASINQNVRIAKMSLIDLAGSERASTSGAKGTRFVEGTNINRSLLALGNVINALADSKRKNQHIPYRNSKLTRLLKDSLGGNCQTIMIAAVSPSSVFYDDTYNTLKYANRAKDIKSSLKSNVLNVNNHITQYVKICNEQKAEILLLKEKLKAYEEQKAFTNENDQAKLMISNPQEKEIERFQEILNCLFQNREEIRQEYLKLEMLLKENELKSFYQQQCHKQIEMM
T1 sequence (P02550 whole entry partner): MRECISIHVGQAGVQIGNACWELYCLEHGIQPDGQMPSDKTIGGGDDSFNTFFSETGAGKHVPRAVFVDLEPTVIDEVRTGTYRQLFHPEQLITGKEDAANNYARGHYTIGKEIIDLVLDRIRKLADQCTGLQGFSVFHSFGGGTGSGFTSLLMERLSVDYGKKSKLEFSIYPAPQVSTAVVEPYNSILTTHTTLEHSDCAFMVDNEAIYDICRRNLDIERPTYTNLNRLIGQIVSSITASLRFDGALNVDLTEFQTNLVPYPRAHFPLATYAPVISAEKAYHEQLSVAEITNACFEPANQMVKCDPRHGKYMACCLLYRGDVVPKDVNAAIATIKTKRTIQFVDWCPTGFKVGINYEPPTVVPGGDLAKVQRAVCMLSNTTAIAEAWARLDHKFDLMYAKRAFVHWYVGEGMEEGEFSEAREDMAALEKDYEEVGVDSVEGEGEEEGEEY
T1 sequence (P02554 whole entry partner): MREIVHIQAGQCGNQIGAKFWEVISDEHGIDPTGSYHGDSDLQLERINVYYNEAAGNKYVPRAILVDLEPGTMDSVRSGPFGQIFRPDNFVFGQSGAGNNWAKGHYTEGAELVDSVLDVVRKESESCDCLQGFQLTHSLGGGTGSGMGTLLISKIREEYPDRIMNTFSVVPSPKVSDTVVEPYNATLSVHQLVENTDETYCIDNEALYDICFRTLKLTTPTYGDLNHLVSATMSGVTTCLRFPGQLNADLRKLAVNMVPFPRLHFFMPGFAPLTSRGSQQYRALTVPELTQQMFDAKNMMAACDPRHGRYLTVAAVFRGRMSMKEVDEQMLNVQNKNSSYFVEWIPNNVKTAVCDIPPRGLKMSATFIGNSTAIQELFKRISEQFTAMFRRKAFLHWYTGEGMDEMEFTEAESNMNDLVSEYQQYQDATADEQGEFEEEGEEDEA

Point of comparison: CC(C)(CO)Nc1ccc(C(=O)Nc2cccc(N3CCCC(O)(CO)C3)n2)c(N2CCC3(CC2)CC3)n1 (stereo not shown) [Example 230, 6-((1-hydroxy-2-methylpropan-2-yl)amino)-N-(6-(3-hydroxy-3-(hydroxymethyl)piperidin-1-yl)pyridin-2-yl)-2-(6-azaspiro[2.5]octan-6-yl)nicotinamide], IC50 0.114 µM. Against it:
- C[C@@H]1CN(c2cccc(NC(=O)c3ccc(S(C)(=O)=O)nc3N3CCC4(CC3)CC4)n2)CCO1 [Example 238, (R)-N-(6-(2-methylmorpholino)pyridin-2-yl)-6-(methylsulfonyl)-2-(6-azaspiro[2.5]octan-6-yl)nicotinamide] — 2.5-fold higher, 0.284 µM
- CC(C)(CO)Nc1ccc(C(=O)Nc2cccc(N3CCOC(C)(C)C3)n2)c(N2CCC3(CC2)CC3)n1 [Example 130, 2-(6-azaspiro[2.5]oct-6-yl)-N-(6-(2,2-dimethyl-4-morpholinyl)-2-pyridinyl)-6-((2-hydroxy-1,1-dimethylethyl)amino)-3-pyridinecarboxamide] — 1.5-fold higher, 0.172 µM
- CC(C)(C)NS(=O)(=O)c1cccc(NC(=O)c2ccc(C(C)(O)C(F)(F)F)nc2N2CCC3(CC2)CC3)n1 (racemic) [Example 143, N-(6-(N-(tert-butyl)sulfamoyl)pyridin-2-yl)-2-(6-azaspiro[2.5]octan-6-yl)-6-(1,1,1-trifluoro-2-hydroxypropan-2-yl)nicotinamide] — within 1.5-fold, 0.0904 µM
- CC(C)(C)NS(=O)(=O)c1cccc(NC(=O)c2ccc(C(O)(CO)C(F)(F)F)nc2N2CCC3(CC2)CC3)n1 (racemic) [Example 172, N-(6-(N-(tert-butyl)sulfamoyl)pyridin-2-yl)-2-(6-azaspiro[2.5]octan-6-yl)-6-(1,1,1-trifluoro-2,3-dihydroxypropan-2-yl)nicotinamide] — within 1.5-fold, 0.12 µM
- C[C@@H]1CN(c2nc(NC(=O)c3ccc(NC(C)(C)CO)nc3N3CCC4(CC3)CC4)ccc2F)CCO1 [Example 247, 2-(6-azaspiro[2.5]octan-6-yl)-N-(5-fluoro-6-((2R)-2-methyl-4-morpholinyl)-2-pyridinyl)-6-((1-hydroxy-2-methyl-2-propanyl)amino)-3-pyridinecarboxamide] — within 1.5-fold, 0.0891 µM
- CC(C)(CO)Nc1cnc(C(=O)Nc2cc(Cl)cc(N3CCOCC3)n2)c(N2CCC3(CC2)CC3)n1 [Example 113, 3-(6-azaspiro[2.5]oct-6-yl)-N-(4-chloro-6-(4-morpholinyl)-2-pyridinyl)-5-((1-hydroxy-2-methyl-2-propanyl)amino)-2-pyrazinecarboxamide] — within 1.5-fold, 0.112 µM
- CC(C)(CO)Nc1ccc(C(=O)Nc2cccc(N3CCOC(C(C)(C)O)C3)n2)c(N2CCC3(CC2)CC3)n1 (stereo not shown) [Example 186, 6-((1-hydroxy-2-methylpropan-2-yl)amino)-N-(6-(2-(2-hydroxypropan-2-yl)morpholino)pyridin-2-yl)-2-(6-azaspiro[2.5]octan-6-yl)nicotinamide] — 3.2-fold higher, 0.365 µM
- CC1(C)CCN(c2cccc(NC(=O)c3ccc(NC(C)(C)CO)nc3N3CCC4(CC3)CC4)n2)C1 [Example 128, 2-(6-azaspiro[2.5]oct-6-yl)-N-(6-(3,3-dimethyl-l-pyrrolidinyl)-2-pyridinyl)-6-((2-hydroxy-1,1-dimethylethyl)amino)-3-pyridinecarboxamide] — within 1.5-fold, 0.0953 µM
- CN1CCN(c2cccc(NC(=O)c3ccc(NC(C)(C)CO)nc3N3CCC4(CC3)CC4)n2)CC1 [Example 133, 2-(6-azaspiro[2.5]oct-6-yl)-6-((2-hydroxy-1,1-dimethylethyl)amino)-N-(6-(4-methyl-1-piperazinyl)-2-pyridinyl)-3-pyridinecarboxamide] — 5.3-fold higher, 0.604 µM
- CC(C)(CO)Nc1ccc(C(=O)Nc2cccc(C3=CCOCC3)n2)c(N2CCC3(CC2)CC3)n1 [Example 138, 2-(6-azaspiro[2.5]oct-6-yl)-N-(6-(3,6-dihydro-2H-pyran-4-yl)-2-pyridinyl)-6-((1-hydroxy-2-methyl-2-propanyl)amino)-3-pyridinecarboxamide] — within 1.5-fold, 0.0829 µM
- CCN1CCN(c2cccc(NC(=O)c3ccc(NC(C)(C)CO)nc3N3CCC4(CC3)CC4)n2)CC1 [Example 192, 2-(6-azaspiro[2.5]octan-6-yl)-N-(6-(4-ethyl-1-piperazinyl)-2-pyridinyl)-6-((1-hydroxy-2-methyl-2-propanyl)amino)-3-pyridinecarboxamide] — 9.6-fold higher, 1.09 µM
- C[C@@H]1CN(c2cccc(NC(=O)c3ccc(NS(C)(=O)=O)nc3N3CCC4(CC3)CC4)n2)CCO1 [Example 218, 2-(6-azaspiro[2.5]octan-6-yl)-N-(6-((2R)-2-methyl-4-morpholinyl)-2-pyridinyl)-6-((methylsulfonyl)amino)-3-pyridinecarboxamide] — within 1.5-fold, 0.149 µM
- CC(C)(CO)Nc1ccc(C(=O)Nc2cccc(N3CCO[C@H](CO)C3)n2)c(N2CCC3(CC2)CC3)n1 [Example 189, 2-(6-azaspiro[2.5]octan-6-yl)-N-(6-((2S)-2-(hydroxymethyl)-4-morpholinyl)-2-pyridinyl)-6-((1-hydroxy-2-methyl-2-propanyl)amino)-3-pyridinecarboxamide] — within 1.5-fold, 0.111 µM
- C[C@@H]1CN(c2cccc(NC(=O)c3ccc(C(O)(CO)C(F)(F)F)nc3N3CCC4(CC3)CC4)n2)CCO1 (stereo partly drawn) [Example 182, N-(6-((R)-2-methylmorpholino)pyridin-2-yl)-2-(6-azaspiro[2.5]octan-6-yl)-6-(1,1,1-trifluoro-2,3-dihydroxypropan-2-yl)nicotinamide] — within 1.5-fold, 0.0795 µM
- CC1CN(c2cccc(NC(=O)c3ccc(NC(C)(C)CO)nc3N3CCC4(CC3)CC4)n2)CCO1 (stereo not shown) [Example 126, 6-((1-hydroxy-2-methylpropan-2-yl)amino)-N-(6-(2-methylmorpholino)pyridin-2-yl)-2-(6-azaspiro[2.5]octan-6-yl)nicotinamide] — 1.9-fold lower, 0.0602 µM
- COC(=O)C(F)(C(=O)OC)c1ccc(C(=O)Nc2cccc(S(=O)(=O)NC(C)(C)C)n2)c(N2CCC3(CC2)CC3)n1 [Example 193, dimethyl (6-(6-azaspiro[2.5]octan-6-yl)-5-((6-((2-methyl-2-propanyl)sulfamoyl)-2-pyridinyl)carbamoyl)-2-pyridinyl)(fluoro)propanedioate] — 2.1-fold higher, 0.239 µM
- CC(C)(CO)Nc1ccc(C(=O)Nc2cccc(N3CCCC3)n2)c(N2CCC3(CC2)CC3)n1 [Example 125, 2-(6-azaspiro[2.5]oct-6-yl)-6-((2-hydroxy-1,1-dimethylethyl)amino)-N-(6-(1-pyrrolidinyl)-2-pyridinyl)-3-pyridinecarboxamide] — within 1.5-fold, 0.136 µM
- CC(C)(CO)Nc1ccc(C(=O)Nc2cccc(N3CCC(F)(F)C3)n2)c(N2CCC3(CC2)CC3)n1 [Example 129, 2-(6-azaspiro[2.5]oct-6-yl)-N-(6-(3,3-difluoro-l-pyrrolidinyl)-2-pyridinyl)-6-((2-hydroxy-1,1-dimethylethyl)amino)-3-pyridinecarboxamide] — within 1.5-fold, 0.0834 µM
- CC(C)(CO)Nc1ccc(C(=O)Nc2cccc(N3CC(F)C3)n2)c(N2CCC3(CC2)CC3)n1 [Example 144, 2-(6-azaspiro[2.5]oct-6-yl)-N-(6-(3-fluoro-1-azetidinyl)-2-pyridinyl)-6-((1-hydroxy-2-methyl-2-propanyl)amino)-3-pyridinecarboxamide] — within 1.5-fold, 0.0765 µM
- CC(C)(C)NS(=O)(=O)c1cccc(NC(=O)c2ccc(NC(C)(CO)CO)nc2N2CCC3(CC2)CC3)n1 [Example 174, 2-(6-azaspiro[2.5]octan-6-yl)-6-((1,3-dihydroxy-2-methyl-2-propanyl)amino)-N-(6-((2-methyl-2-propanyl)sulfamoyl)-2-pyridinyl)-3-pyridinecarboxamide] — 1.8-fold lower, 0.0622 µM
- C[C@@H]1CN(c2cccc(NC(=O)c3ccc(OCCC(C)(C)N)nc3N3CCC4(CC3)CC4)n2)CCO1 [Example 209, 6-(3-amino-3-methylbutoxy)-2-(6-azaspiro[2.5]octan-6-yl)-N-(6-((2R)-2-methyl-4-morpholinyl)-2-pyridinyl)-3-pyridinecarboxamide] — 3.6-fold higher, 0.411 µM
- C[C@H]1CCN(c2cccc(NC(=O)c3ccc(NC(C)(C)CO)nc3N3CCC4(CC3)CC4)n2)C1 [Example 139, 2-(6-azaspiro[2.5]oct-6-yl)-6-((1-hydroxy-2-methyl-2-propanyl)amino)-N-(6-((3S)-3-methyl-1-pyrrolidinyl)-2-pyridinyl)-3-pyridinecarboxamide] — within 1.5-fold, 0.0893 µM
- Cc1cc(NC(=O)c2ccc(NC(C)(C)CO)nc2N2CCC3(CC2)CC3)nc(NC(C)(C)CO)c1 [Example 170, 2-(6-azaspiro[2.5]octan-6-yl)-6-((1-hydroxy-2-methyl-2-propanyl)amino)-N-(6-((1-hydroxy-2-methyl-2-propanyl)amino)-4-methyl-2-pyridinyl)-3-pyridinecarboxamide] — within 1.5-fold, 0.157 µM
- CN(C(=O)OC(C)(C)C)C1CCCN(c2cccc(NC(=O)c3ccc(NC(C)(C)CO)nc3N3CCC4(CC3)CC4)n2)C1 (stereo not shown) [Example 232, tert-butyl (1-(6-(6-((1-hydroxy-2-methylpropan-2-yl)amino)-2-(6-azaspiro[2.5]octan-6-yl)nicotinamido)pyridin-2-yl)piperidin-3-yl)(methyl)carbamate] — 8.3-fold higher, 0.948 µM
- CC(C)(CO)Nc1ccc(C(=O)Nc2cccc(N3CCOC(CN)C3)n2)c(N2CCC3(CC2)CC3)n1 (stereo not shown) [Example 235, N-(6-(2-(aminomethyl)morpholino)pyridin-2-yl)-6-((1-hydroxy-2-methylpropan-2-yl)amino)-2-(6-azaspiro[2.5]octan-6-yl)nicotinamide] — 3.1-fold higher, 0.357 µM
- O=C(Nc1cccc(N2CCC[C@@H](O)C2)n1)c1ccc(C(O)(CO)C(F)(F)F)nc1N1CCC2(CC1)CC2 (stereo partly drawn) [Example 242, N-(6-((R)-3-hydroxypiperidin-l-yl)pyridin-2-yl)-2-(6-azaspiro[2.5]octan-6-yl)-6-(1,1,1-trifluoro-2,3-dihydroxypropan-2-yl)nicotinamide] — within 1.5-fold, 0.0781 µM
- CC(C)(C)NS(=O)(=O)c1cccc(NC(=O)c2ncc(N3C(=O)OCC3(C)C)nc2N2CCC3(CC2)CC3)n1 [Example 119, 3-(6-azaspiro[2.5]octan-6-yl)-5-(4,4-dimethyl-2-oxo-1,3-oxazolidin-3-yl)-N-(6-((2-methyl-2-propanyl)sulfamoyl)-2-pyridinyl)-2-pyrazinecarboxamide] — 7.2-fold higher, 0.817 µM
